Assay results taken from PMC9090415, “Discovery of small molecule inhibitors of Plasmodium falciparum apicoplast DNA polymerase” (Journal of Enzyme Inhibition and Medicinal Chemistry, 2022).

Biological target: P. falciparum apicoplast DNA polymerase (Pf-apPOL) (Plasmodium falciparum, UniProt Q8ILY1)
Assay: Fluorescence-based high-throughput DNA polymerase assay (molecular beacon), primary screen and dose-response
Format: biochemical
Settings: for DNA Pol: unit not given, 90 min, 10 µM; for % inhibition apPOL 180' 2.5 / % inhibition apPOL 180' 5 / % inhibition apPOL 180' 10 / % inhibition apPOL 180' 20 / % inhibition apPOL 180' 40 / % inhibition apPOL 180' 80: read at 180'
Summary of the method: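 Single-point screening used 10 µM compound with 20 nM polymerase, 20 nM hairpin substrate and 6 µM dNTPs for 90 min at 25 °C. Confirmatory titrations (2.5–80 µM) followed fluorescence at three times, and IC50 was derived from a fit including a cooperativity term n.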

Chain of P. falciparum apicoplast DNA polymerase (Pf-apPOL) (Q8ILY1 entry or part of it): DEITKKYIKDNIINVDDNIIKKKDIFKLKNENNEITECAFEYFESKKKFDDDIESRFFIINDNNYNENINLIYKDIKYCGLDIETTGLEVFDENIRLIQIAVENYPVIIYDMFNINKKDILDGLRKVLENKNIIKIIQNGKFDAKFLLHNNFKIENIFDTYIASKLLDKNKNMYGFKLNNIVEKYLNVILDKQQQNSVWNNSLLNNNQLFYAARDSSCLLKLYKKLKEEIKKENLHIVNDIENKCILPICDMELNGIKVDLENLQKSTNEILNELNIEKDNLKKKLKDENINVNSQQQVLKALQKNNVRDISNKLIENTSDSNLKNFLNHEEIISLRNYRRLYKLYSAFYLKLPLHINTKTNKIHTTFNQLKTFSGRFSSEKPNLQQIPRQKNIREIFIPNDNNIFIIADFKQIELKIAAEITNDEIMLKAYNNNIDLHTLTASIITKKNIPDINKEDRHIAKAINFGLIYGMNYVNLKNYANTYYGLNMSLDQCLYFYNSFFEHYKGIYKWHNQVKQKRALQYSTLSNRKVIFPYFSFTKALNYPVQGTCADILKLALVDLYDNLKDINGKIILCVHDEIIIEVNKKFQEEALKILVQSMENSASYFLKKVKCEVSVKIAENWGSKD

Structure (SMILES): CC(=O)OCC1=C(C(=O)[O-])N2C(=O)[C@@H](NC(=O)Cc3cccs3)[C@H]2SC1.[Na+] [Molecule 73, CC(=O)OCC1=C(C(=O)[O-])N2[C@H](SC1)[C@@H](C2=O)NC(=O)Cc1cccs1.[Na+]]
- DNA Pol (186 hits, DNA Pol (screen value)): 62
- DNA Pol ('DNA Pol' (screen value)): 62
- % inhibition Apo pol 10' 2.5 (DRC-1, read at 10', concentration 2.5): 15.9246%
- % inhibition Apo pol 10' 5 (DRC-1, read at 10', concentration 5): 24.2196%
- % inhibition Apo pol 10' 10 (DRC-1, read at 10', concentration 10): 38.6298%
- % inhibition Apo pol 10' 20 (DRC-1, read at 10', concentration 20): 52.9189%
- % inhibition Apo pol 10' 40 (DRC-1, read at 10', concentration 40): 72.9017%
- % inhibition Apo pol 10' 80 (DRC-1, read at 10', concentration 80): 83.4409%
- % inhibition Apol 90' 2.5 (DRC-1, read at 90', concentration 2.5): -0.64%
- % inhibition Apol 90' 5 (DRC-1, read at 90', concentration 5): -0.282%
- % inhibition Apol 90' 10 (DRC-1, read at 90', concentration 10): 6.863%
- % inhibition Apol 90' 20 (DRC-1, read at 90', concentration 20): 14.2955%
- % inhibition Apol 90' 40 (DRC-1, read at 90', concentration 40): 36.8577%
- % inhibition Apol 90' 80 (DRC-1, read at 90', concentration 80): 67.9349%
- % inhibition apPOL 180' 2.5 (DRC-1, concentration 2.5): -8.644%
- % inhibition apPOL 180' 5 (DRC-1, concentration 5): -9.547%
- % inhibition apPOL 180' 10 (DRC-1, concentration 10): -4.869%
- % inhibition apPOL 180' 20 (DRC-1, concentration 20): -0.1262%
- % inhibition apPOL 180' 40 (DRC-1, concentration 40): 18.2499%
- % inhibition apPOL 180' 80 (DRC-1, concentration 80): 56.6871%
- % inhibition Apol 40' (DRC-2, concentration 2.5): 1.25%
- % inhibition Apol 40' (DRC-2, concentration 20): 29%
- % inhibition ApPOL 90' (DRC-2, 90', concentration 2.5): 1.25%
- % inhibition apPOL 180' (DRC-2, 180', concentration 40): 29%
- % inhibition Apo pol 5' 2.5 (DRC-2, read at 5', concentration 2.5): 3%
- % inhibition Apo pol 5' 5 (DRC-2, read at 5', concentration 5): 6.34%
- % inhibition Apo pol 5' 10 (DRC-2, read at 5', concentration 10): 22%
- % inhibition Apo pol 5' 20 (DRC-2, read at 5', concentration 20): 36%
- % inhibition Apo pol 5' 40 (DRC-2, read at 5', concentration 40): 43%
- % inhibition Apo pol 5' 80 (DRC-2, read at 5', concentration 80): 50%
- % inhibition Apol 40' 2.5 (DRC-2, read at 40', concentration 2.5): 1.25%
- % inhibition Apol 40' 5 (DRC-2, read at 40', concentration 5): 2%
- % inhibition Apol 40' 10 (DRC-2, read at 40', concentration 10): 13%
- % inhibition Apol 40' 20 (DRC-2, read at 40', concentration 20): 29%
- % inhibition Apol 40' 40 (DRC-2, read at 40', concentration 40): 45%
- % inhibition Apol 40' 80 (DRC-2, read at 40', concentration 80): 62%
- % inhibition ApPOL 90' 2.5 (DRC-2, read at 90', concentration 2.5): 1.25%
- % inhibition ApPOL 90' 5 (DRC-2, read at 90', concentration 5): -1.85%
- % inhibition ApPOL 90' 10 (DRC-2, read at 90', concentration 10): 5%
- % inhibition ApPOL 90' 20 (DRC-2, read at 90', concentration 20): 20%
- % inhibition ApPOL 90' 40 (DRC-2, read at 90', concentration 40): 39%
- % inhibition ApPOL 90' 80 (DRC-2, read at 90', concentration 80): 63%
- % inhibition apPOL 180' 2.5 (DRC-2, concentration 2.5): -0.311%
- % inhibition apPOL 180' 5 (DRC-2, concentration 5): -7%
- % inhibition apPOL 180' 10 (DRC-2, concentration 10): -2.83%
- % inhibition apPOL 180' 20 (DRC-2, concentration 20): 10%
- % inhibition apPOL 180' 40 (DRC-2, concentration 40): 29%
- % inhibition apPOL 180' 80 (DRC-2, concentration 80): 60%
